# From patent US8759372B2, “N-(5S,6S,9R)-amino-6-(2,3-difluorophenyl)-6,7,8,9-tetrahydro-5H-ctclohepta[b]Pyridin-9-yl-4-(2-oxo-2,3-dihydro-1H-imidazo[4,5-b]pyridin-1-carboxylate salt” (Bristol-Myers Squibb Company, priority 2012, dated 2014)
# Where a name gives a salt, the structure may show the parent alone. Read-outs that look alike come from different tables or passages of the source.
# What was measured:
# [1] = In vivo pharmacokinetic study in humans with and without famotidine pretreatment; settings: for AUC(0-inf) / Cmax / half-life / Tmax: human, plasma; for AUC(0-inf) / Cmax / half-life / Cl/F: (%); for Tmax: read-out: Tmax Median
# Protocol: An in vivo study was conducted comparing the pharmacokinetics of the free base Compound (I) in humans pretreated with 40 mg of famotidine with non-pretreated humans.
# Compound (I) in human EDTA plasma was analyzed using liquid-liquid extraction with uHPLC-MS/MS detection on a Triple Quad 5500 mass spectrometer. The method utilized stable isotope labeled [^13C2, D4]-Compound (I) as the internal standard. After the addition of 50 μL of 100 ng/mL [^13C2, D4]-Compound (I) in MeOH:water (20/80) and of 50 μL 1M NH4OAc containing 4% acetic acid buffer solution to 0.100 mL of each study sample, quality control (QC) sample, and calibration standard, the samples were extracted with 600 μL methyl tert-butyl ether (MTBE) by shaking for 15 min. A 450 μL portion of the organic layer was removed and evaporated to dryness. The residue was reconstituted in 200 μL of the reconstitution solution (30% acetonitrile in 10 mM NH4OAc with 0.01% acetic acid). All liquid transfer steps were performed using a Perkin Elmer JANUS Mini® liquid handler except for the addition of the internal standard solution. A 10 μL aliquot of the extracted sample was injected to uHPLC-MS/MS system. The uHPLC was performed on a LEAP 4X Ultra uHPLC system with LEAP HTC PAL autosampler. Mobile phase A contained 10 mM NH4OAc and 0.01% acetic acid in ACN/water (10:90), and mobile phase B contained 10 mM NH4OAc and 0.01% acetic acid in ACN/water (90:10). Chromatographic separation was achieved on an Acquity® uHPLC BEH C18 column (1.7 μm, 2.1×50 mm) with an isocratic elution from 0-1.5 min consisted of 28% Mobile Phase B for analysis of Compound (I), then with a gradient elution consisted of a linear increase from 28% B to 100% B in 0.1 min, then maintaining it at 100% B for 1.1 min for washing out the column. The gradient was then returned to 28% B within 0.1 min, and maintained at 28% for 0.9 min with a total run time of 3.7 min. The flow rate was 0.6 mL/min and column temperature was maintained at 60° C. condition. Detection was accomplished using an AB Sciex Triple Quad 5500 mass spectrometer in positive ESI with turbo ion spray ionization and using multiple reaction monitoring (MRM) mode. The MRM transitions were m/z 535→256 for Compound (I) and m/z 541→256 for [^13C2, D4]-Compound (I). Data acquisition and quantiation were performed using AB Sciex Analyst® 1.5.1 software. The standard curve, which ranged from 0.500-500 ng/ml for Compound (I), was fitted to a 1/x2 weighted linear regression model. During sample analysis, four levels of analytical quality control (QC) samples representing low, geometric-mean, medium, and high concentrations of Compound (I) prepared in human EDTA plasma were analyzed in 4 replicates at each concentration level for each analytical run. The results from these QC samples were used to accept or reject the analytical runs containing study samples based on the acceptance criteria established a priori for the analysis of Compound (I) in human EDTA plasma.
# [2] = Dissolution rate in aqueous medium; assay type: physicochemical; settings: pH 1 and 5 versus pH 7
# Text: The dissolution rate of Compound (I) is dependent on the pH of the aqueous medium. […] The normal pH of the stomach is 1.2 to 1.8 according to […], Clinical Analysis, Chapter 32, in Remington: The Science and Practice of Pharmacy 20th Edition, A. R. Gennaro, editor; 2000, Lippinocott Williams & Wilkins, Baltimore, Md. However, patients often take other medications that can raise the pH of the stomach, including antacids, proton pump inhibitors, and H2-receptor antagonists such as famotidine, which can lower the dissolution rate of Compound (I).
# [3] = Solid state stability study; assay type: physicochemical
# Protocol: The solid state stability of Example 1 was tested by exposing samples to various temperature and relative humidity conditions for periods of 1, 2, and 4 weeks.
# [4] = Moisture sorption isotherm; assay type: physicochemical; settings: for moisture sorption weight gain: 25° C.
# Protocol: Example 1 has moisture sorption weight gains of 0.8 weight % and 2.8 weight % between 25% and 75% relative humidity and 5% and 95% relative humidity, respectively.
# Moisture sorption isotherms were collected in a VTI SGA-100 Symmetric Vapor Analyzer using approximately 10 mg of sample. The sample was dried at 60° C. until the loss rate of 0.0005 wt %/min was obtained for 10 minutes. The sample was tested at 25° C. and 3 or 4, 5, 15, 25, 35, 45, 50, 65, 75, 85, and 95% RH. Equilibration at each RH was reached when the rate of 0.0003 wt %/min for 35 minutes was achieved or a maximum of 600 minutes.
# [5] = Salt screen and crystalline salt characterization; assay type: physicochemical; settings: for hygroscopicity: ambient temperature and relative humidity conditions, Hemisulfate Salt
# Protocol: High throughput crystallization was employed to screen for the formation of crystalline salts of Compound (I). The screening examined acid type, acid level (equivalents), and/or type of crystallization solvent. Each plate contained 96 well plates (8 rows of 12 columns per plate).
# A solution was prepared by dissolving 400 mg of Compound (I) in a mixture of 36 ml THF and 4 mL H2O. The solution ([…]) was transferred to 24 vials. To each vial was added 0.25 M EtOH stock solutions of the following acids:
# The content of each vial was transferred to 12 crystallization wells and evaporated to dryness. Upon evaporation, each well was charged with 100 μl of solvent using a robotic liquid handler. The following crystallization solvents were tested: methyl isobutyl ketone (MIBK), ethyl acetate, toluene, THF, acetonitrile, acetone, isopropanol, ethanol, methanol, 1,2-dichloroethylene, isopropanol/water (50:50), and water. Next, the plates were sealed with Teflon septa and subjected to temperature cycling. The plates were maintained at 50° C. for 10 hours and then allowed to cool to room temperature over a period of 14 hours. After the heating/cooling cycle, the contents of the wells were characterized by birefringent imaging. Perceived crystalline hits were further characterized by PXRD analysis.
# [6] = Water activity studies between crystalline forms; assay type: physicochemical
# Protocol: Form P22C: prepared by heating Form H1.5-1 at 60° C. for 2 hours or at 75° C. for 5 minutes.
# Form P33: Form H1.5-1 converted to Form P33 between 50° C. and 75° C. in variable temperature PXRD experiment. Also observed after Form H1.5-1 was heated to 105° C. for 5 minutes, or prepared by slurring dry powder Form H1.5-1 in dry EtOH or IPAc. […] Form P35: Prepared from slurry of Form H1.5-1 in dry MeOH under molecular sieves (7% RH). Converted to Form P33 when dried at 60° C. Stability in Water Slurry
# [7] = Stability in water slurry; assay type: physicochemical; settings: room temperature, two days
# Protocol: An aqueous slurry of Example 1 was prepared and stored at room temperature.
# [8] = humans, 150 mg Compound (I) oral with 40 mg Famotidine pretreatment
# [9] = humans, 150 mg Compound (I) oral, no pretreatment
# [10] = humans, 150 mg with 40 mg Famotidine relative to no pretreatment
# [11] = 25 RH/60° C. (first line, r9), 2 weeks
# [12] = 25 RH/60° C. (first line, r9), 4 weeks
# [13] = 25 RH/60° C. (first of three lines printed alike, r9), 1 week
# [14] = 25 RH/60° C. (second line, r11), 1 week
# [15] = 25 RH/60° C. (second line, r11), 2 weeks
# [16] = 25 RH/60° C. (second line, r11), 4 weeks
# [17] = 25 RH/60° C. (third line, r13), 1 week
# [18] = 25 RH/60° C. (third line, r13), 2 weeks
# [19] = 25 RH/60° C. (third line, r13), 4 weeks
# [20] = HIL/UV (high-intensity light/ultraviolet), 1 week
# [21] = HIL/UV (high-intensity light/ultraviolet), 2 weeks
smiles,measurement,setting,value
"N[C@@H]1c2cccnc2[C@H](OC(=O)N2CCC(n3c(=O)[nH]c4ncccc43)CC2)CC[C@H]1c1cccc(F)c1F [Compound (I), (5S,6S,9R)-5-amino-6-(2,3-difluorophenyl)-6,7,8,9-tetrahydro-5H-cyclohepta[b]pyridin-9-yl-4-(2-oxo-2,3-dihydro-1H-imidazo[4,5-b]pyridin-1-yl)piperidine-1-carboxylate]",AUC(0-inf),[1]; [8],3.06 µg·h/mL
same,Cmax,[1]; [8],0.259 µg/mL
same,half-life,[1]; [8],12.6 h
same,Tmax,[1]; [8],3 h
same,AUC(0-inf),[1]; [9],7.2 µg·h/mL
same,Cmax,[1]; [9],0.991 µg/mL
same,half-life,[1]; [9],12 h
same,Tmax,[1]; [9],2.5 h
same,change in AUC and Cmax,[1]; humans pretreated with 40 mg of famotidine compared to non-pretreated humans,significant reduction
same,Cl/F,[1]; [8],49 (28%) L/hr
same,Cl/F,[1]; [9],20.84 (75%) L/hr
same,F (AUCinf),[1]; [10],42.5% (96%)
same,F (Cmax),[1]; [10],26.2% (130%)
same,dissolution rate,[2],higher dissolution rate at pH values of 1 and 5 than at a pH value of 7
"N[C@@H]1c2cccnc2[C@H](OC(=O)N2CCC(n3c(=O)[nH]c4ncccc43)CC2)CC[C@H]1c1cccc(F)c1F [Example 1, (5S,6S,9R)-5-Amino-6-(2,3-difluorophenyl)-6,7,8,9-tetrahydro-5H-cyclohepta[b]pyridin-9-yl-4-(2-oxo-2,3-dihydro-1H-imidazo[4,5-b]pyridin-1-yl) piperidine-1-carboxylate, Hemisulfate Salt]",% potency,[3]; [11],96.8%
same,% total impurities,[3]; [11],0.27%
same,% potency,[3]; [12],96.9%
same,% total impurities,[3]; [12],0.27%
same,% potency,[3]; [13],94.4%
same,% total impurities,[3]; [13],0.27%
same,% potency,[3]; [14],95.1%
same,% total impurities,[3]; [14],0.27%
same,% potency,[3]; [15],98.5%
same,% total impurities,[3]; [15],0.27%
same,% potency,[3]; [16],97.0%
same,% total impurities,[3]; [16],0.27%
same,% potency,[3]; [17],101.6%
same,% total impurities,[3]; [17],0.28%
same,% potency,[3]; [18],102.6%
same,% total impurities,[3]; [18],0.27%
same,% potency,[3]; [19],110.0%
same,% total impurities,[3]; [19],0.27%
same,% potency,[3]; [20],100.7%
same,% total impurities,[3]; [20],0.27%
same,% potency,[3]; [21],96.9%
same,% total impurities,[3]; [21],0.27%
same,% potency,[3]; Initial,98.5%
same,% total impurities,[3]; Initial,0.27%
same,% potency,"[3]; Refrigerated, 1 week",98.0%
same,% total impurities,"[3]; Refrigerated, 1 week",0.29%
same,% potency,"[3]; Refrigerated, 2 weeks",96.5%
same,% total impurities,"[3]; Refrigerated, 2 weeks",0.27%
same,% potency,"[3]; Refrigerated, 4 weeks",105.7%
same,% total impurities,"[3]; Refrigerated, 4 weeks",0.27%
same,solid state stability,"[3]; tested temperature and relative humidity conditions, four weeks of storage",stable under the tested storage conditions
same,moisture sorption weight gain,[4]; between 5% and 95% relative humidity,2.8 weight %
same,moisture sorption weight gain,[4]; between 25% and 75% relative humidity,0.8 weight %
same,hygroscopicity,[4]; moisture sorption isotherm at 25° C.,low or non-hygroscopic
same,hygroscopicity,[5]; listed as Sulfuric acid,low/non-
same,hygroscopicity,[5]; listed as hemisulfate salt of Compound (I),low hygroscopicity
same,chemical stability,[5]; crystalline salt,chemically stable
same,physical stability,[5]; crystalline salt,physically stable
same,relative stability of crystalline forms,[6]; Form H1.5-1 versus Form P22C,more stable at >23% relative humidity
same,relative stability of crystalline forms,[6]; Form H1.5-1 versus Form P33,more stable at >23% relative humidity
same,chemical degradation in aqueous slurry,[7],no significant chemical degradation
same,stability of crystalline form in aqueous slurry (PXRD),[7],stable in the aqueous slurry
